Data published in patent US20260102359A1, “COMBINATION TREATMENT OF DERMAL AND TRANSDERMAL FIBROTIC DISEASES, DISORDERS AND ASSOCIATED PAIN AND INFLAMMATION” (ERESINA, LLC, priority 2022, published 2026).
Where a name gives a salt, the structure may show the parent alone.

System: hDMFa myofibroblast cells

SMILES | Compound Myofibroblast Cytotoxicity Activity
C[C@H]1[C@H](C)CC[C@]2(C(=O)O)CC[C@]3(C)C(=CC[C@@H]4[C@@]5(C)C[C@@H](O)[C@H](O)[C@@](C)(CO)[C@@H]5[C@H](O)C[C@]43C)[C@H]12 [Cmpd 625, Madecassic acid] | +++++
NCc1ccc(S(N)(=O)=O)cc1 [Cmpd 626, Mafenide Acetate] | ++++
Cl.NCc1ccc(S(N)(=O)=O)cc1 [Cmpd 627, Mafenide hydrochloride] | ++
O=C(O)CC(=O)O [Cmpd 631, Malonic acid] | ++++
CC(C)OC(=O)C(C(=O)OC(C)C)=C1SC=CS1 [Cmpd 632, Malotilate] | ++
CNCCCC12CCC(c3ccccc31)c1ccccc12 [Cmpd 635, Maprotiline HCl] | +++
Cc1cccc(O)c1 [Cmpd 636, m-Cresol] | ++
COC(=O)Nc1nc2ccc(C(=O)c3ccccc3)cc2[nH]1 [Cmpd 637, Mebendazole] | ++++
CCN(CCCCOC(=O)c1ccc(OC)c(OC)c1)C(C)Cc1ccc(OC)cc1.Cl (stereo not drawn) [Cmpd 638, Mebeverine Hydrochloride] | ++
CNC1(C)C2CCC(C2)C1(C)C.Cl (stereo not drawn) [Cmpd 639, Mecamylamine hydrochloride] | ++++
Cc1cccc(CN2CCN(C(c3ccccc3)c3ccc(Cl)cc3)CC2)c1.Cl.Cl (stereo not drawn) [Cmpd 641, Meclizine 2HCl] | ++
CC(=O)O[C@]1(C(C)=O)CC[C@H]2[C@@H]3C[C@H](C)C4=CC(=O)CC[C@]4(C)[C@H]3CC[C@@]21C [Cmpd 643, Medroxyprogesterone acetate] | ++
Cl.OC(c1cc(C(F)(F)F)nc2c(C(F)(F)F)cccc12)C1CCCCN1 (stereo not drawn) [Cmpd 644, Mefloquine hydrochloride] | ++++
CC(C)=CCC/C(C)=C/CC/C(C)=C/CC/C(C)=C/CC1=C(C)C(=O)c2ccccc2C1=O [Cmpd 652, Menaquinone 4] | ++
CC(=O)OC(C)C[N+](C)(C)C (stereo not drawn) [Cmpd 655, Methacholine chloride] | ++
COc1cccc(OC)c1C(=O)N[C@@H]1C(=O)N2[C@@H]1SC(C)(C)[C@@H]2C(=O)O [Cmpd 656, Methicillin (sodium salt)] | ++
CSCC[C@H](N)C(=O)O [Cmpd 657, Methionine] | ++
CN(Cc1cnc2nc(N)nc(N)c2n1)c1ccc(C(=O)N[C@@H](CCC(=O)[O-])C(=O)[O-])cc1.[Na+].[Na+] [Cmpd 658, Methotrexate disodium] | ++
COC(=O)c1ccccc1O [Cmpd 659, Methyl salicylate] | ++
CS(C)(=O)=O [Cmpd 660, Methyl Sulfonyl Methane (MSM)] | +
C/C1=C2/[N-][C@H]([C@H](CC(N)=O)[C@@]2(C)CCC(=O)NC[C@@H](C)OP(=O)([O-])O[C@H]2[C@@H](O)[C@@H](n3cnc4cc(C)c(C)cc43)O[C@@H]2CO)[C@]2(C)N=C(/C(C)=C3N=C(/C=C4N=C1[C@@H](CCC(N)=O)C\4(C)C)[C@@H](CCC(N)=O)[C@]\3(C)CC(N)=O)[C@@H](CCC(N)=O)[C@]2(C)CC(N)=O.[CH3-].[Co+3] [Cmpd 662, Methylcobalamin] | ++

SMILES | Compound Myofibroblast Cytotoxicity Activity
CN(C)c1ccc2nc3ccc(=[N+](C)C)cc-3sc2c1 [Cmpd 663, Methylene Blue] | +++++
COC(=O)c1ccc(O)cc1 [Cmpd 664, Methylparaben] | ++
COCCc1ccc(OCC(O)CNC(C)C)cc1 (stereo not drawn) [Cmpd 665, Metoprolol Tartrate] | ++
CC(C)(C(=O)c1cccnc1)c1cccnc1 [Cmpd 667, Metyrapone] | ++
CC[C@H](C)C(=O)O[C@H]1CCC=C2C=C[C@H](C)[C@H](CC[C@@H]3C[C@@H](O)CC(=O)O3)[C@H]21 [Cmpd 668, Mevastatin] | +++
Clc1ccc(COC(Cn2ccnc2)c2ccc(Cl)cc2Cl)c(Cl)c1 (stereo not drawn) [Cmpd 671, Miconazole] | +++
Clc1ccc(COC(Cn2ccnc2)c2ccc(Cl)cc2Cl)c(Cl)c1 (stereo not drawn) [Cmpd 672, Miconazole Nitrate] | +++
COc1ccc(OC)c(C(O)CNC(=O)CN)c1 (stereo not drawn) [Cmpd 673, Midodrine (hydrochloride)] | ++++
CO[C@@H]1[C@H](N(C)C(=O)c2ccccc2)C[C@H]2O[C@]1(C)n1c3ccccc3c3c4c(c5c6ccccc6n2c5c31)C(=O)NC4 [Cmpd 674, Midostaurin (PKC412)] | ++
CCN(CC)C(=O)C1(c2ccccc2)CC1CN (stereo not drawn) [Cmpd 676, Milnacipran HCl] | ++++
CCCCCCCCCCCCCCCCOP(=O)([O-])OCC[N+](C)(C)C [Cmpd 677, Miltefosine] | +++++
N=c1nc(N2CCCCC2)cc(N)n1OS(=O)(=O)O [Cmpd 678, Minoxidil sulphate] | ++
CN1CCN2c3ncccc3Cc3ccccc3C2C1 (stereo not drawn) [Cmpd 679, Mirtazapine] | ++++
Clc1ccc(C(c2ccccc2Cl)C(Cl)Cl)cc1 (stereo not drawn) [Cmpd 681, Mitotane (Lsodren)] | +++
O=C1c2c(O)ccc(O)c2C(=O)c2c(NCCNCCO)ccc(NCCNCCO)c21 [Cmpd 682, Mitoxantrone HCl] | +++++
COc1cc(Nc2ncc3c(n2)-c2ccc(Cl)cc2C(c2c(F)cccc2OC)=NC3)ccc1C(=O)O [Cmpd 685, MLN8237 (Alisertib)] | ++++
O=c1c(-n2ccnn2)c[nH]n1-c1cc(N2CCOCC2)ncn1 [Cmpd 687, Molidustat (BAY85-3934)] | +++
C[C@@H]1C[C@H]2[C@@H]3CCC4=CC(=O)C=C[C@]4(C)[C@@]3(Cl)[C@@H](O)C[C@]2(C)[C@@]1(OC(=O)c1ccco1)C(=O)CCl [Cmpd 688, Mometasone furoate] | ++
CC(C)(O)c1ccccc1CC[C@@H](SCC1(CC(=O)O)CC1)c1cccc(/C=C/c2ccc3ccc(Cl)cc3n2)c1 [Cmpd 689, Montelukast Sodium] | +++++
CCCN(CCC)C(=O)C1=Cc2ccc(-c3ccc(C(=O)N4CCCC4)cc3)cc2N=C(N)C1 [Cmpd 690, Motolimod (VTX-2337)] | ++
O[C@H]1[C@H](O)[C@@H](O)[C@H](O)[C@@H](O)[C@H]1O [Cmpd 692, myo-Inositol] | ++++

SMILES | Compound Myofibroblast Cytotoxicity Activity
CC(=O)N[C@@H](CS)C(=O)O [Cmpd 695, N-Acetyl-L-cysteine] | +
CN(C/C=C/c1ccccc1)Cc1cccc2ccccc12 [Cmpd 696, Naftifine HCl] | ++
COc1ccccc1N1CCN(CC(O)COc2cccc3ccccc23)CC1 (stereo not drawn) [Cmpd 697, Naftopidil] | +++
COc1ccc([C@@H]2CC(=O)c3c(O)cc(O[C@@H]4O[C@H](CO)[C@@H](O)[C@H](O)[C@H]4O[C@@H]4O[C@@H](C)[C@H](O)[C@@H](O)[C@H]4O)cc3O2)cc1O [Cmpd 702, Neohesperidin] | ++
NC(=O)c1cccnc1 [Cmpd 705, Niacinamide] | +
COC(=O)C1=C(C)NC(C)=C(C(=O)OCCN(C)Cc2ccccc2)C1c1cccc([N+](=O)[O-])c1 (stereo not drawn) [Cmpd 706, Nicardipine HCl] | +++
CO[C@]12C[C@@H](COC(=O)c3cncc(Br)c3)CN(C)[C@@H]1Cc1cn(C)c3cccc2c13 [Cmpd 707, Nicergoline] | ++
O=C(Nc1ccc([N+](=O)[O-])cc1Cl)c1cc(Cl)ccc1O [Cmpd 708, Niclosamide] | ++
O=C(N/N=C/c1ccc([N+](=O)[O-])o1)c1ccc(O)cc1 [Cmpd 711, Nifuroxazide] | ++
Cc1cn(-c2cc(NC(=O)c3ccc(C)c(Nc4nccc(-c5cccnc5)n4)c3)cc(C(F)(F)F)c2)cn1 [Cmpd 712, Nilotinib monohydrochloride monohydrate] | +++
CC1(C)NC(=O)N(c2ccc([N+](=O)[O-])c(C(F)(F)F)c2)C1=O [Cmpd 714, Nilutamide] | ++++
COC(=O)C1=C(C#N)NC(C)=C(C(=O)OC(C)C)C1c1cccc([N+](=O)[O-])c1 (stereo not drawn) [Cmpd 715, Nilvadipine] | +++
COC(=O)c1ccc2c(c1)NC(=O)/C2=C(\Nc1ccc(N(C)C(=O)CN2CCN(C)CC2)cc1)c1ccccc1 [Cmpd 716, Nintedanib (BIBF 1120)] | ++++
COC(=O)C1=C(C)NC(C)=C(C(=O)OCC(C)C)C1c1ccccc1[N+](=O)[O-] (stereo not drawn) [Cmpd 717, Nisoldipine] | +++
CC(=O)Oc1ccccc1C(=O)Nc1ncc([N+](=O)[O-])s1 [Cmpd 718, Nitazoxanide] | +++
CCOC(=O)C1=C(C)NC(C)=C(C(=O)OC)C1c1cccc([N+](=O)[O-])c1 (stereo not drawn) [Cmpd 719, Nitrendipine] | +++
O=C1CN(/N=C/c2ccc([N+](=O)[O-])o2)C(=O)N1 [Cmpd 720, Nitrofurantoin] | ++++
CC(Cc1ccc(O)c(O)c1)C(C)Cc1ccc(O)c(O)c1 (stereo not drawn) [Cmpd 722, Nordihydroguaiaretic acid] | +++
CNCCC=C1c2ccccc2CCc2ccccc21 [Cmpd 723, Nortriptyline (hydrochloride)] | ++
CO[C@@H]1[C@@H](OC(N)=O)[C@@H](O)[C@H](Oc2ccc3c(O)c(NC(=O)c4ccc(O)c(CC=C(C)C)c4)c(=O)oc3c2C)OC1(C)C [Cmpd 724, Novobiocin Sodium] | ++++
CCCCCCCC(=O)O [Cmpd 729, Octanoic acid] | ++
